Counter-ions that a name gives are not always drawn.
Legend:
cholesterol-fed rabbits = assay: Effect on the development of atherosclerotic lesion in cholesterol-fed rabbits with chronic endothelial injury; type: in vivo, New Zealand White rabbits; conditions: for Effect on ECD (in words) / Effect on atheroclerotic area of the femoral lesion (in words): Table 2; for The ratio of Atheroclerotic area: femoral artery, oral for 8 weeks after surgery, control 57.4; for The ratio of Atheroclerotic area / ECD (extracellular lipid deposits): Pravastatin 10 mg/kg, Compound A 5 mg/kg; for ECD (extracellular lipid deposits): right femoral artery sections, Elastica-Masson's stain, oral for 8 weeks, control 15.5
Excerpt: Male New Zealand White rabbits (Kitayama Labes, Japan) weighing 1.0-1.5 kg were meal-fed a chow diet (RC-4, Oriental Bioservice, Japan) supplemented with 0.5% cholesterol, 3% peanut oil, and 3% coconut oil diet for a total of 10 weeks.
The dietary regimen consisted of feeding the cholesterol/fat diet at 40 g for the first 2 weeks, 50 g for 4 weeks, 60 g for final 4 weeks. After 2 week of diet initiation, a chronic endothelial injury was induced in the abdominal aorta and right femoral artery by surgically inserting a sterile, nylon monofilament through the medical saphenous artery of the right leg to the level of the diaphragm. The monofilament was secured and maintained in place for remaining 8 weeks of the study. Animals were randomized on the basis of their total cholesterol levels after 2 week of cholesterol/fat diet. The HMG-CoA reductase inhibitor and the ACAT inhibitor were orally administered both alone and in combination for 8 weeks after surgery.
Femoral artery was photographed for the morphometric analyses by digital camera (Coolpix 990, trade name: product of […].) connected with a computer. The severity of aortic atherosclerosis was estimated as a ratio of surface area of lesion to the intimal surface area of aorta by Photo-retouch software (“Adobe Photoshop 5.0” trade name: product of Adobe Systems Inc.) and the Scion image NIH Imaging Software (“Scion Image 1.61 c MacOs” product of Scion Corporation). (ii) Extracellular Lipid Deposits
Rabbits were anesthetized with intravenous injection of sodium pentobarbital (25 mg/kg) and perfused with saline by using a perfusion apparatus at a constant pressure of 100 mmHg. After perfusion, the aortas were excised, photographed. Analysis of lesional cross-sections on aortas was examined at the right femoral artery. Right femoral artery was fixed in Methanol Carnoy's fixative for at least 24 hours. The segments were embedded in paraffin, and sectioned at 5 μm. Five ribbons of four serilal sections from each segment were cut at 80 μm intervals. A section from each ribbon was treated with Elastica-Masson's stain.
Digital image of each section was collected using a digital camera (Fujix CCD camera system HC-2500: product of Fuji Photo Film Co., Ltd.) attached to Leica microscope at a magnification of 2.5×. The area of each lesional component was extracted using Adobe Photoshop 5.0 (Adobe) for estimation of the quality of the lesions. In sections treated with Elastica-Masson's stain, the region with light green were identified as extracellular matrix (ECM), and extracellular vacuoles and lacunae (white regions) were defined as extracellular lipid deposits (ECD). ECD was measured by average of value dividing area of lesional component by area of lesion using Adobe Photoshop 5.0 and Scion Image 1.61 MacOs.

F1b hamsters = assay: Lipid lowering action in cholesterol/coconut oil-fed F1b hamsters (serum lipids by an enzyme method); type: in vivo, hamster; conditions: for Cholesterol concentration TC (total cholesterol) / Atherogenic index (VLDL+LDL cholesterol/HDL cholesterol) / Cholesterol concentration HDL / Cholesterol concentration VLDL + LDL: serum, oral once a day for 7 days, Pravastatin 3 mg/kg, Compound A 30 mg/kg; for Cholesterol concentration TC (total cholesterol): 17 h fast after final dose, control 253.0; for Atherogenic index (VLDL+LDL cholesterol/HDL cholesterol): control 3.0; for Cholesterol concentration HDL: control 63.6; for Cholesterol concentration VLDL + LDL: control 189.4
Protocol: Eleven-week-old male F1b hamsters were used in the experiment. The animals were fed in metal cages and allowed free access to food, which contained 0.05% cholesterol and 10% coconut oil, and water. The active agents were administered orally in the form of a suspension in 5% gum arabic solution once a day for 7 days. The animals were fasted for 17 hours after the final administration of active agents at which time blood samples were collected under anesthesia. Serum lipids were measured by an enzyme method. In the table, TC indicates total cholesterol, VLDL indicates very low density lipoprotein, LDL indicates low density lipoprotein, HDL indicates high density lipoprotein and compound A indicates N-(1-octyl-5-carboxymethyl-4,6-dimethylindolin-7-yl)-2,2-dimethylpropanamide sulfate.

Structure (SMILES) | Effect on ECD (in words) (cholesterol-fed rabbits) | Effect on atheroclerotic area of the femoral lesion (in words) (cholesterol-fed rabbits) | The ratio of Atheroclerotic area (cholesterol-fed rabbits) [%] | ECD (extracellular lipid deposits) (cholesterol-fed rabbits) [mm^2] | Cholesterol concentration TC (total cholesterol) (F1b hamsters) | Atherogenic index (VLDL+LDL cholesterol/HDL cholesterol) (F1b hamsters) | Cholesterol concentration HDL (F1b hamsters) | Cholesterol concentration VLDL + LDL (F1b hamsters) | Effect on atherogenic index (in words) (F1b hamsters; summary of Table 1) | Effect on serum VLDL+LDL cholesterol level (in words) (F1b hamsters; summary of Table 1) | Effect on total serum cholesterol level (in words) (F1b hamsters; summary of Table 1)
CCCCCCCCN1CCc2c(C)c(CC(=O)O)c(C)c(NC(=O)C(C)(C)C)c21 [Compound A, N-(1-octyl-5-carboxymethyl-4,6-dimethylindolin-7-yl)-2,2-dimethylpropanamide sulfate] | reduced | reduced | 45.8 | 10.7 | 170.9 | 1.8 | 62.0 | 109.0 | lowered | decreased | decreased
CC[C@H](C)C(=O)O[C@H]1C[C@H](O)C=C2C=C[C@H](C)[C@H](CC[C@@H](O)C[C@@H](O)CC(=O)O)[C@H]21 [Pravastatin, (+)-(3R,5R)-3,5-dihydroxy-7-[(1S,2S,6S,8S,8aR)-6-hydroxy-2-methyl-8-[(S)-2-methylbutyryloxy]-1,2,6,7,8,8a-hexahydro-1-napthyl]heptanoic acid, reference compound] | no effect | no effect | 58.3 | 16.6 | 244.0 | 2.3 | 73.3 | 170.6 |  |  | 

Reference: US20040092571A1, “Pharmaceutical composition” (SANKYO COMPANY, LIMITED, priority 2000, published 2004)
